Measured values from PMC1190152, “Archazolid and apicularen: Novel specific V-ATPase inhibitors” (BMC Biochemistry, 2005).
Read-outs that look alike come from different tables or passages of the source.

Key:
3Y1 = experiment: Growth inhibition of 3Y1 cells (MTT assay); assay type: cell-based, rat; conditions: read-out: IC50 growth inhibition
Method: (§1) Cell lines were obtained from the German Collection of Microorganisms and Cell Cultures (DSMZ). Cell lines 3Y1 and M1 (embryonal fibroblasts from 129/Ola × C57BL/6 mice, [30]) were a generous gift from Dr. S. Miyamoto, Fukoka, Japan, and Dr. P. F. Mühlradt, Braunschweig, Germany. All cell lines were cultivated under conditions recommended by the supplier. Growth inhibition was measured in microtiterplates. Aliquots of 120 μl of the suspended cells (50,000/ml) were given to 60 μl of a serial dilution of the inhibitor. After 5 days, growth was determined using the MTT assay.

KB-V1 = experiment: Growth inhibition of multidrug-resistant KB-V1 cells (MTT assay), with or without verapamil; assay type: cell-based; conditions: 120 h; KB-V1, mdr human cervix carcinoma; without verapamil; MTT after 5 days
Method: The novel antibiotics archazolids and apicularens (Fig. 1) were checked for their impact on the cell growth of a variety of mammalian cell lines from different tissues (Tab. 1). […] Apicularen B was the only exception, with an average IC50 value two orders of magnitude higher. Growth inhibition of the multidrug-resistant cell line KB-V1 was also measured in the presence of verapamil. […] The data in Tab 1. show, that unlike the archazolids, the apicularens are poor substrates of Pgp. To visualize the impact of the antibiotics, PtK2 (potoroo kidney) cells were incubated with the inhibitors and stained for intact acidic lysosomes (Fig. 2). […] The same observation was made with KB-3-1 cells (data not shown). […] Unlike the cell lines listed in Tab. 1, the growth of PtK2 cells was not completely stopped. The same holds true for A-498 cells (human kidney carcinoma). Both cell lines grow epithelial-like. There was obviously a differential reaction of cell lines to V-ATPase inhibitors. For A-431 cells (human epidermoid carcinoma) a dependence on the expression of the EGF receptor was shown.
as §1

A-594 [1] = experiment: Growth inhibition of A-594 cells (MTT assay); assay type: cell-based, human; conditions: 120 h, read-out: IC50 growth inhibition
Method: as §1

M1 = experiment: Growth inhibition of M1 cells (MTT assay); assay type: cell-based, mouse; conditions: 120 h, read-out: IC50 growth inhibition
Method: as §1

Na+/K+-ATPase = biological target: T1, Na+/K+-ATPase (Sus scrofa, UniProt P05024); experiment: Inhibition of Na+/K+-ATPase from pig kidney; assay type: biochemical; conditions: inhibitor 1 μM
T1 construct: highly purified, Na^+/K^+-ATPase containing plasma membranes from pig kidney; from tissue; host or cells: pig kidney, purified plasma membranes
Method: (§2) The V-ATPase holoenzyme was purified as published elsewhere. Preparation of highly purified membranes containing Na^+/K^+-ATPase from pig kidney followed the protocol of Jørgensen with the three main steps of differential centrifugation, incubation with SDS in the presence of ATP and sucrose density gradient centrifugation in a fixed angle rotor, and led to a specific enzyme activity which was in the same range as that reported by the authors. The resulting sample was stored frozen at -20°C. To prepare crude membrane extracts, the hearts of three mice were washed three times with an ice-cold buffer of pH 8.1 consisting of 0.25 M sucrose, 5 mM Tris-HCl, 5 mM EDTA, and 10 mM Pefabloc SC (Biomol), homogenized in 5 ml of this buffer and centrifuged at 4°C for 25 min at 233,000 × gmax in a fixed angle rotor. The resulting pellet was resuspended in 5 ml of a buffer of pH 7.5, consisting of 5 mM Tris-MOPS (3-morpholinopropanesulfonic acid), 10 mM NaCl, 10 mM Pefabloc SC, 9.6 mM 2-mercaptoethanol, 0.53 mM EGTA and 0.1 % Triton X-100. After an aliquot for protein determination had been taken, 10% bovine serum albumin (final concentration) was added to the suspension which was then stored on ice until the activity assays were run. Beef heart mitochondria were isolated by differential centrifugation, following the protocol of Smith by using a blender to homogenize the heart mince. The initial homogenization buffer consisted of 250 mM saccharose, 10 mM KH2PO4, 10 mM Tris, 2 mM EGTA, 2 mM MgCl2, pH 7.4, and further isolation procedures were carried out in the same medium without EGTA [24]. Submitochondrial particles were obtained by ultrasonic treatment of the mitochondria.
(§3) Standard V-ATPase assays with a final volume of 160 μl and a pH of 8.1 consisted of 3–4 μg of protein, 50 mM Tris-MOPS, 3 mM 2-mercaptoethanol, 1 mM MgCl2, 20 mM KCl, 0.003% C12E10, 20 mM NaCl, and 3 mM Tris-HCl. After 5 min of pre-incubation at 30°C with or without inhibitors, 1 mM Tris-ATP was added and after incubation for 2 min the reaction was stopped by placing the tube in liquid nitrogen. Assays using Na^+/K^+-ATPase were performed in 160 μl at pH 7.5 and contained 0.5 μg of protein, 50 mM Tris-MOPS, 5 mM imidazole, 0.2 mM EDTA, 4 mM MgCl2, 20 mM KCl and 100 mM NaCl. After 5 min of pre-incubation at 37°C with or without inhibitors, 3 mM Tris-ATP was added and after 1 min of incubation the reaction was stopped by placing the tube in liquid nitrogen. […] After 5 min of pre-incubation at 30°C with or without inhibitors, 1 mM Tris-ATP was added and after an incubation time of 10 min the reaction was stopped by placing the tubes in liquid nitrogen. ATPase assays with submitochondrial particles from beef heart were performed in a final volume of 1 ml and a pH of 8.0. The samples contained 9–12 μg protein, 50 mM Tris, 50 mM KCl and 2.5 mM MgCl2. After 5 min of preincubation with or without inhibitors, 5 mM ATP was added, and after an additional incubation time of 15 min the reaction was stopped by the addition of 0.4 ml of 20 % TCA.
(§4) Inorganic phosphate produced in the assays of V-ATPase, Na^+/K^+-ATPase and mouse heart F-ATPase was measured according the protocol of Wieczorek et al., while the determination of inorganic phosphate produced in the assays of beef heart F-ATPase followed the method of Fiske and Subarrow using ascorbic acid as reducing agent.

PtK2 cells = experiment: Inhibition of lysosomal acidification (LysoTracker staining); assay type: cell-based, potoroo; conditions: 4 hours with inhibitor
Method: PtK2 (ATCC CCL-56) or KB-3-1 cells were grown on glass coverslips (13 mm diameter) in four-well-plates. Exponentially growing cells were incubated with the inhibitors for 4 hours and stained for lysosomes with 50 nM LysoTracker Red DND-99 and for mitochondria with 75 nM MitoTracker Green FM (both from Molecular Probes) at 37°C for 30 min. The nuclei were stained using Hoechst 33258 (5 μg/ml). The coverslips were mounted upside down in PBS, fixed with nail polish, and observed under the fluorescent microscope.

L-929 = test system: L-929; parameters: method as in PMID 12931860; conditions: L-929, murine connective tissue; ref [17]; read-out: IC50 growth inhibition; cited from earlier work
[2] = biological target: T2, V-ATPase holoenzyme from the midgut of the tobacco hornworm (Manduca sexta, UniProt P31403); parameters: method as in PMID 12186879; conditions: ref [10], cited from earlier work; for IC50: read-out: half-maximal inhibition concentration of purified V-ATPase
T2 construct: purified V-ATPase holoenzyme from the midgut of the tobacco hornworm; from tissue; host or cells: midgut of fifth instar Manduca sexta larvae

Vo subunit c [3] = biological target: T3, Vo subunit c (Manduca sexta, UniProt P31403); parameters: method as in PMID 12186879; conditions: previous study; ref [10]; cited from earlier work
T3 construct: from tissue; host or cells: midgut of Manduca sexta larvae (purified V-ATPase)

F-ATPase [4] = biological target: T4, F-ATPase (Mus musculus, UniProt P56480); experiment: Inhibition of F-ATPase activity in crude membranes from mouse heart; assay type: biochemical; conditions: mouse heart crude membranes
T4 construct: we prepared mitochondria rich crude membranes from mouse heart; from tissue; host or cells: mouse heart, crude membrane extract
Method: as §2, §3, §4

F-ATPase [5] = biological target: T5, F-ATPase (Bos taurus, UniProt P00829); experiment: Inhibition of F-ATPase activity in submitochondrial particles from beef heart; assay type: biochemical; conditions: beef heart submitochondrial particles
T5 construct: Submitochondrial particles were obtained by ultrasonic treatment of the mitochondria; from tissue; host or cells: beef heart mitochondria, submitochondrial particles
Method: as §2, §3, §4

fungi = conditions: ref [11],[15],[17]; cited from earlier work
bacterial growth = conditions: ref [11],[15],[17]; cited from earlier work
mammalian V-ATPases = conditions: ref [11],[15],[17]; cited from earlier work
V-ATPases from fungi = conditions: Saccharomyces cerevisiae or Neurospora crassa; ref [11],[15],[17]; cited from earlier work
[6] = biological target: T2, V-ATPase holoenzyme from the midgut of the tobacco hornworm; experiment: Inhibition of purified V-ATPase holoenzyme activity; assay type: biochemical; conditions: for IC50 per mg of protein, purified V-ATPase: equivalent of the half-maximal concentration
Method: as §2, §3, §4
Fifth instar larvae of M. sexta (Lepidoptera, Sphingidae), weighing 6–8 g, were reared under long day conditions (16 h of light) at 27°C using a synthetic diet modified according to Bell et al.

Vo subunit c [7] = biological target: T3, Vo subunit c; experiment: Protection of V-ATPase subunit c from photoaffinity labelling by I-concanolide A; assay type: binding; conditions: pre-incubation 100 μM or 10 μM, 60 min on ice; I-concanolide A 10 μM; UV
Method: Twenty micrograms of the samples were pre-incubated with the inhibitors for 1 h on ice. The labelled I-concanolide A was then added to give a final concentration of 10 μM. Controls were run without effectors. Mixtures with volumes of 40 μl were incubated for an additional 1 h on ice and then treated for 3 min with UV light (366 nm) on ice. After UV irradiation, 10 μl of 5-fold sample buffer was added, the mixture was heated for 45 s at 95°C, cooled on ice, and subjected to Tricine-SDS-PAGE (16.5% T, 3% C separating gel and 10%T, 3% C spacer gel), followed by Coomassie staining. The gels were sealed in plastic wrap before they were exposed to a phosphoscreen for up to 72 h and analyzed with the aid of a phosphoimager (Molecular Dynamics).

A-594 [8] = test system: A-594; parameters: method as in PMID 10048565; conditions: A-594, human lung carcinoma; ref [15]; read-out: IC50 growth inhibition; cited from earlier work
[9] = 120 h, 3Y1, rat embryogenic fibroblast cell line, MTT after 5 days
[10] = M1, mouse embryogenic fibroblast cell line, MTT after 5 days

T2 sequence (P31403 whole entry): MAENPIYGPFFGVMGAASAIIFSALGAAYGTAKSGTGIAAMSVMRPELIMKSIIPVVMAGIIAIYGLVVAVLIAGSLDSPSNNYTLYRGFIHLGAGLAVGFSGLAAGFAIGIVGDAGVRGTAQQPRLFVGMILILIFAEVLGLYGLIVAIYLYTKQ
T3 sequence (P31403 whole entry): as above

Compound | IC50 (3Y1; [9]) [nM] | IC50 (KB-V1) [nM] | IC50 (M1; [10]) [nM] | specific activity of Na+/K+-ATPase (Na+/K+-ATPase; experiment 1, control 19.0) [µmol/mg/min] | specific activity of Na+/K+-ATPase (Na+/K+-ATPase; experiment 2, control 15.9) [µmol/mg/min] | effect on Na+/K+-ATPase activity (Na+/K+-ATPase) | red LysoTracker staining indicating acidic lysosomes (PtK2 cells) | IC50 (L-929) [nM] | IC50 per mg of protein, purified V-ATPase [2] | IC50 [2] [nM] | labelling of / binding to subunit c (Vo subunit c [3]) | inhibition of bacterial growth (bacterial growth) | IC50 per mg of protein, purified V-ATPase [6] | labelling of subunit c by I-concanolide A after pre-incubation (Vo subunit c [7]) | also measured
C/C=C/[C@H]1O[C@@](O)([C@@H](C)[C@H](O)[C@H](C)[C@H]2OC(=O)/C(OC)=C/C(C)=C/[C@@H](C)[C@@H](O)[C@@H](CC)[C@@H](O)[C@H](C)C/C(C)=C/C=C/[C@@H]2OC)C[C@@H](O[C@H]2C[C@@H](O)[C@H](OC(N)=O)[C@@H](C)O2)[C@@H]1C [concanamycin A, reference compound] | 1.4 | 28 | 0.56 | 16.7 | 12.7 | slight inhibition of comparable size | disappeared | 0.23 | ca. 0.5 nmol per mg of protein | ~10 | prevented |  |  |  | IC50 (A-594 [1]; A-594, human lung carcinoma, MTT after 5 days): 0.17 nM
archazolid |  |  |  |  |  |  |  |  |  |  |  |  |  |  | ATPase activity reduced to (remaining activity) (F-ATPase [4]; inhibitor 1 μM): approximately 80%; effect of increased inhibitor concentration on F-ATPase activity (F-ATPase [4]; inhibitor 10 μM): no substantial effect; ATPase activity reduced to (remaining activity) (F-ATPase [5]; inhibitor 1 μM): approximately 80%; effect of increased inhibitor concentration on F-ATPase activity (F-ATPase [5]; inhibitor 10 μM): no substantial effect; activity against fungi (fungi): weak activity
salicylihalamide |  |  |  |  |  |  |  |  | ca. 0.5 nmol per mg of protein | ~10 | does not bind to subunit c | failed to inhibit |  |  | inhibition of mammalian V-ATPases (mammalian V-ATPases): effectively inhibited; inhibition of V-ATPases from fungi (V-ATPases from fungi): not at all
CC/C=C\C=C/C(=O)N/C=C/C[C@H]1C[C@H]2C[C@H](O)C[C@H](Cc3cccc(O)c3C(=O)O1)O2 [apicularen A] | 3.2 | 23 | 1.4 | 17.3 | 13.2 | only slightly affected | disappeared |  |  |  |  | failed to inhibit | ca. 0.8 nmol per mg of protein | did not appear to interfere | IC50 ([6]; purified holoenzyme, 3–4 μg protein, pH 8.1, 30°C, read-out: half-maximal inhibition concentration of purified V-ATPase): ~20 nM; IC50 (A-594 [8]): 0.23 nM
CNC(=O)O[C@@H](CC(C)C)c1nc([C@H]2OC(=O)/C(C)=C/C/C(C)=C/[C@@H](O)[C@@H](C)\C=C(C)/C=C(C)\C=C\[C@@H](O)[C@H](C)[C@H](OC)/C(C)=C/C=C/[C@@H]2C)cs1 [archazolid A] |  | 48 |  | 17.1 | 12.2 | only slightly affected | disappeared | 0.81 |  |  |  | failed to inhibit | ca. 0.8 nmol per mg of protein | completely abolished | IC50 (3Y1; Rattus norvegicus, 3Y1, 120 h): 0.95 nM; IC50 (A-594 [1]; Homo sapiens): 0.54 nM; IC50 (M1; Mus musculus, Fibroblast): 0.27 nM; IC50 [6]: ~20 nM
